Molecules are shown by their SMILES. Where two headings read alike, the source gives them in different places. Some results are limits rather than exact numbers.

For orientation: IC50 means the concentration that gives 50% inhibition. The Ki is a measure of affinity in units of concentration, obtained from inhibition or displacement.

The target in test [1] is T1, acetylcholine esterase (AChE) (Homo sapiens, UniProt P22303).
T1 construct: purchased CEREP, France (external assay service) 0363
Nature of the test: AChE enzyme activity assay (CEREP). It counts as biochemical. As for the experimental part:
(§1) An in vitro pharmacological profiling panel was specifically designed for the detection of potential high- risk clinical adverse drug reactions. The panel comprised of 26 diverse targets (6 enzymes, 2 transporters, 9 G-protein-coupled receptors (GPCRs), 5 ion channels along with hERG, M2, alpha1A and AchE) and was conduced externally by CEREP, France […]. […] Detailed methodology for in vitro pharmacological profiling assays provided by CEREP can be found at http://www.cerep.fr, with specific reference to the AChE (cat. no. 0363), Muscarinic M1 receptor (cat. no. 0091) and Adrenergic α1A receptor (cat. no. 2338) assays. For enzyme and kinase assays, the results were expressed as a percent inhibition of control-specific activity obtained in the presence of the test compound. The IC50 values (concentration causing a half-maximal inhibition of control-specific activity) and Hill coefficients (nH) were determined by nonlinear regression analysis of the inhibition/concentration–response curves using Hill equation curve fitting as described earlier.

The test system of test [2] is GPCR. Briefly: Secondary pharmacology panel, target #9.
Protocol: (§3) An in vitro pharmacological profiling panel was specifically designed for the detection of potential high- risk clinical adverse drug reactions. […] For enzyme and kinase assays, the results were expressed as a percent inhibition of control-specific activity obtained in the presence of the test compound. The IC50 values (concentration causing a half-maximal inhibition of control-specific activity) and Hill coefficients (nH) were determined by nonlinear regression analysis of the inhibition/concentration–response curves using Hill equation curve fitting as described earlier[37].
(§4) For assessment of activity against these targets, compounds were tested in an 8-point
(§5) concentration response covering half-log units up to a top test concentration of 100 µM, and
(§6) an IC50 or Ki determined using either radio ligand binding assays or enzyme activity assays.
In test [3] the test system is Enzyme. Briefly: Secondary pharmacology panel, target #25.
Protocol: (§7) For enzyme and kinase assays, the results were expressed as a percent inhibition of control-specific activity obtained in the presence of the test compound. The IC50 values (concentration causing a half-maximal inhibition of control-specific activity) and Hill coefficients (nH) were determined by nonlinear regression analysis of the inhibition/concentration–response curves using Hill equation curve fitting as described earlier[37].
as §4, §5, §6
The subject of test [4] is GPCR. Briefly: Secondary pharmacology panel, target #8.
Protocol: as §3, §4, §5, §6
Test [5] concerns Ion channel. Briefly: Secondary pharmacology panel, target #16.
Protocol: as §3, §4, §5, §6
Test [6] deals with Enzyme. Nature of the test: Secondary pharmacology panel, target #23.
Protocol: as §7, §4, §5, §6
The subject of test [7] is Ion channel. Nature of the test: Secondary pharmacology panel, target #2.
Protocol: as §3, §4, §5, §6
The test system of test [8] is GPCR. Nature of the test: Secondary pharmacology panel, target #22.
Protocol: as §3, §4, §5, §6
In test [9] the test system is GPCR. Nature of the test: Secondary pharmacology panel, target #12.
Protocol: as §3, §4, §5, §6
The test system of test [10] is Enzyme. Briefly: Secondary pharmacology panel, target #11.
Protocol: as §7, §4, §5, §6
In another test the test system is Transporter. Nature of the test: Secondary pharmacology panel, target #7.
The target in the next test is T2, α1A adrenoceptor (Homo sapiens, UniProt P35348).
T2 construct: purchased CEREP, France (external assay service) 2338
T2 sequence (P35348 1-466): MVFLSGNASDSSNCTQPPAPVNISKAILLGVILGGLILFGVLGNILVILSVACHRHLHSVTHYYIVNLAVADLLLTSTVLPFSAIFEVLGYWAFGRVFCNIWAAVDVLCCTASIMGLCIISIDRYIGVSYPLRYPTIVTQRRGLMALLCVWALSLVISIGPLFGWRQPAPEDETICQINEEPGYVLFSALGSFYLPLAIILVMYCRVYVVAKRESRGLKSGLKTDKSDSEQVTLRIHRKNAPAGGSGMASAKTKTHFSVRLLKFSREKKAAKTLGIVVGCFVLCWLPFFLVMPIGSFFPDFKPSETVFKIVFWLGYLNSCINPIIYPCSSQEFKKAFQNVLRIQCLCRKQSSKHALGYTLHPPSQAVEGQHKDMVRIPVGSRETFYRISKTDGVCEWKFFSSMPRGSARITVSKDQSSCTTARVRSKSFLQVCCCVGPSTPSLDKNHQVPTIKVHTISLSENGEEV
Briefly: α1A adrenoceptor radioligand binding (CEREP). As for the experimental part: as §1
(§2) For radioligand binding assays, the results are expressed as % inhibition of control-specific binding obtained in the presence of the test compounds. The IC50 values (concentration causing a half-maximal inhibition of control-specific binding) and Hill coefficients (nH) were determined by nonlinear regression analysis of the competition curves generated with mean replicate values using Hill equation curve fitting. The inhibition constants (Ki) were subsequently calculated by applying the Cheng Prusoff equation[38].

Test [11] has as its system GPCR. Nature of the test: Secondary pharmacology panel, target #13.
Protocol: as §3, §4, §5, §6
The subject of another test is GPCR 9. Nature of the test: Secondary pharmacology panel, target #20.
Another test addresses T3, Muscarinic M2 receptor (Homo sapiens, UniProt P08172).
T3 construct: purchased CEREP, France (external assay service)
T3 sequence (P08172 1-466): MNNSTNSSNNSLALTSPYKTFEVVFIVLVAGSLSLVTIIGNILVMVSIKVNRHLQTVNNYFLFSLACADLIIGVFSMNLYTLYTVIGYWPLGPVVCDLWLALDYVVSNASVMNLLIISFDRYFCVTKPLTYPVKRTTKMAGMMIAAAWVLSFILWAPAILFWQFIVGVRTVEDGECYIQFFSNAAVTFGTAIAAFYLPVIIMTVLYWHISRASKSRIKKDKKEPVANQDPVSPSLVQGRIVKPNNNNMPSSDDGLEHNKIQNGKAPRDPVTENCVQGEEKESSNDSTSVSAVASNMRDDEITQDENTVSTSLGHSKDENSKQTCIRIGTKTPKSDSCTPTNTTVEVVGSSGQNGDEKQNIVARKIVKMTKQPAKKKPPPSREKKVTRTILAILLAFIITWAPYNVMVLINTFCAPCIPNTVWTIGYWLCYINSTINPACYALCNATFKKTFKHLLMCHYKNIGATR
Nature of the test: Muscarinic M2 receptor radioligand binding (CEREP). The procedure: as §1, §2

The test system of test [12] is asexual blood stage of Pf. Nature of the test: Pf asexual blood stage potency (Pf IC50). It counts as cell-based, Plasmodium falciparum. Conditions: for IC50: Plasmodium falciparum. The text has this:
The TAPs series emerged from a high-throughput screen (HTS) of 500,000 compounds from the AstraZeneca corporate library against the asexual blood stage of Pf using a high-content image-based approach. The procedure for synthesis of compounds 1-6, 10, 11 using a scheme similar to Fig. 1 is provided in Supplementary Note 1. The initial hit provided multiple diversification points for a robust lead optimization campaign. […] Compounds with 2-pyridyl modification at the 2-amino position of pyrimidine core improved potency and solubility at the cost of potent activity against hERG and acetylcholine esterase (AChE; compounds 3-6; Table 1). […] The observed hERG and AChE selectivity improvement with 7 could be attributed to the polar nature of the pyrazole group and its role in reducing the pKa of the core pyrimidine ring. […] To assess the potential for cross-resistance, representative TAPs were screened against a panel of clinical isolates and in vitro-generated mutant strains displaying varying mechanisms of resistance to antimalarial agents currently in use and under development, respectively, (Supplementary Tables 1–3).

The test system of test [13] is GPCR. Nature of the test: Secondary pharmacology panel, target #10.
Protocol: as §3, §4, §5, §6
Setting [14] is: Binding Ki / Enzyme IC50, Target #3, AChE.

T1 sequence (P22303 32-614): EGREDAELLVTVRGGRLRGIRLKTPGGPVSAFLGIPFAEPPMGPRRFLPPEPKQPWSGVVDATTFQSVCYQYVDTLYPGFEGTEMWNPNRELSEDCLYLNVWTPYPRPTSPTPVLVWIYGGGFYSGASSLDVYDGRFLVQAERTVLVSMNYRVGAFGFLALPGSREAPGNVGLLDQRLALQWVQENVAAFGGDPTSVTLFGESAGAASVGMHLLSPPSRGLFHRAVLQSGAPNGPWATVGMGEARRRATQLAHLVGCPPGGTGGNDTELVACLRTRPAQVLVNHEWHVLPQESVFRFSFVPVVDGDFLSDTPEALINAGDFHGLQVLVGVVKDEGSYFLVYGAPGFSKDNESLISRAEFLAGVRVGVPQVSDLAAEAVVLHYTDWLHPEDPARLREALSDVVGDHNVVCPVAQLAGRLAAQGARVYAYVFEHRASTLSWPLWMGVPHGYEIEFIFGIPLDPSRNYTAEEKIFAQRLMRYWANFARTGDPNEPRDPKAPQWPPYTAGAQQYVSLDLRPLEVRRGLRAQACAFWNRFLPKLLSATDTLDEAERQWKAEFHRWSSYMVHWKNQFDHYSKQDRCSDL
Protocol for GPCR 9: as §7
targets (8 enzymes, 5 ion channels, 10 GPCRs and 2 transporters) and hERG.
as §4, §5, §6
Protocol for Transporter: as §3, §4, §5, §6

Take `Cc1nc(Nc2ncc(N3CCN(C)[C@H](C)C3)c(Nc3cc(C)n(C)n3)n2)cc(C2CC2)c1F` [compound 12, (R)-N2-(4-cyclopropyl-5-fluoro-6-methylpyridin-2-yl)-N4-(1,5-dimethyl-1H-pyrazol-3-yl)-5-(3,4-dimethylpiperazin-1-yl)pyrimidine-2,4-diamine]: the half-maximal inhibitory concentration (IC50) in [1] (setting [14]) was 78 µM; in test [1] (read-out: AChE IC50) it was above 75 µM; on α1A adrenoceptor it was 1.2 µM; on Muscarinic M2 receptor it was 2 µM; in test [12], 0.009 µM. Besides, the “selectivity against AChE” value in [1] (relative to Pf potency) is > 1,000 fold. The “Binding Ki / Enzyme IC50” value in the test with GPCR [2] is 2.21 µM; with Enzyme [3], above 100 µM; in the test on GPCR [4] it was above 100 µM; in the test on Ion channel [5], above 100 µM; in the test on Enzyme [6], above 100 µM; in the test on Ion channel [7], 2.62 µM. For the same compound, the “Binding Ki / Enzyme IC50” value is above 100 µM with GPCR [8]; 10.9 µM in the test with GPCR [9]; 4.29 µM in the test on Enzyme [10]; 3.85 µM with Transporter; 11.5 µM with GPCR [11]; above 100 µM with GPCR 9. The “Binding Ki / Enzyme IC50” value with GPCR [13] is given as above 100 µM. Further, the inhibition constant (Ki) was found to be 0.604 µM on α1A adrenoceptor and 1.05 µM on Muscarinic M2 receptor. In addition, in test [12] (compound 12 versus compound 2), the “improvement in Pf potency” value is given as above 60 fold.
Regarding `Cc1cc(Nc2ncc(N3CCN(C)CC3)c(N3CCCC3)n2)ccn1` [compound 2], the “Selectivity ratio for AChE (IC50 / blood Cmin at ED90 in the Pf/SCID model)” value in test [1] is reported as below 1. The half-maximal inhibitory concentration (IC50) in test [1] (setting [14]) came out at 0.179 µM; in test [1] (read-out: AChE IC50), 0.16 µM; on α1A adrenoceptor, 3.1 µM; on Muscarinic M2 receptor, 1.6 µM; in test [12], 0.6 µM. Also, the “Binding Ki / Enzyme IC50” value is above 100 µM in the test on GPCR [2]; above 100 µM with Enzyme [3]; 4.735 µM in the test with GPCR [4]; 33.2 µM in the test with Ion channel [5]; above 100 µM with Enzyme [6]; 0.933 µM in the test with Ion channel [7]. Further, the “Binding Ki / Enzyme IC50” value is given as above 100 µM with GPCR [8]; 30.45 µM with GPCR [9]; above 100 µM in the test with Enzyme [10]; 17.1 µM with Transporter; 38.7 µM in the test on GPCR [11]; above 100 µM in the test on GPCR 9. Besides, the “Binding Ki / Enzyme IC50” value in the test with GPCR [13] came out at 8.42 µM. Besides, the Ki at α1A adrenoceptor came to 1.46 µM; on Muscarinic M2 receptor, 1.1 µM. Further, the “Selectivity ratio for α1A (IC50 / blood Cmin at ED90 in the Pf/SCID model)” value on α1A adrenoceptor is on record as below 1. Besides, the “Selectivity ratio for M2 (IC50 / blood Cmin at ED90 in the Pf/SCID model)” value at Muscarinic M2 receptor was below 1.

The record behind these values is article PMC4389225, “Triaminopyrimidine is a fast-killing and long-acting antimalarial clinical candidate” (Nature Communications, 2015).
